Measurements published in patent publication US7056713B1, “Urate oxidase” (Duke University, priority 1998, dated 2006).

Key:
[1] = test system: recombinant pig-baboon chimeric uricase (PBC uricase; aa 1–225 of porcine uricase (SEQ ID NO:7) and aa 226–304 of baboon uricase (SEQ ID NO:6)), unmodified …; assay: KM of unmodified recombinant PBC uricase (studies not shown); format: biochemical, pig-baboon chimera
Experimental: (§1) In this PEGylation reaction all of the uricase subunits were modified (FIG. 1, lane 7). In studies not shown, the PEGylated enzyme had similar kinetic properties to unmodified PBC uricase (KM 10–20 μM). […] The PEGylated enzyme could also be lyophilized and then reconstituted in PBS, pH 7.2, with minimal loss of activity. In other experiments, we compared the activities of this preparation of PEG-PBC uricase with the A. flavus uricase clinical preparation. […] However, in PBS, pH 7.2, the PEG-PBC and unmodified fungal enzymes differed in uricase activity by <2 fold.

[2] = test system: PEGylated recombinant pig-baboon chimeric uricase (PEG-PBC uricase; PBC uricase SEQ ID NO:2); assay: KM of PEGylated recombinant PBC uricase (studies not shown); format: biochemical, pig-baboon chimera; settings: similar kinetic properties to unmodified
Experimental: 100 mg of concentrated Sepahacryl S-200 PBC uricase (5 mg/ml, 2.9 μmol enzyme; 84.1 μmol lysine) in 0.1 M Na2CO3, pH 10.2 was allowed to react with a 2-fold excess (mol of PEG:mol uricase lysines) of an activated form of PEG at 4° for 60 min. The PEGylated uricase was freed from any unreacted or hydrolyzed PEG by tangential flow diafiltration. In this step the reaction was diluted 1:10 in 0.1 M Na2CO3, pH 10.2 and diafiltered vs. 3.5 vol 0.1 M Na2CO3, pH 10.2, then vs. 3.5 vol 0.05 M sodium phosphate, 0.15 M NaCl, pH 7.2. The filter-sterilized enzyme was stable at 4° for at least one month.
In this PEGylation reaction all of the uricase subunits were modified (FIG. 1, lane 7). In studies not shown, the PEGylated enzyme had similar kinetic properties to unmodified PBC uricase (KM 10–20 μM). Importantly, the modified enzyme was much more soluble than the unmodified enzyme at physiologic pH (>5 mg/ml in PBS vs. <1 mg/ml). The PEGylated enzyme could also be lyophilized and then reconstituted in PBS, pH 7.2, with minimal loss of activity. In other experiments, we compared the activities of this preparation of PEG-PBC uricase with the A. flavus uricase clinical preparation. […] However, in PBS, pH 7.2, the PEG-PBC and unmodified fungal enzymes differed in uricase activity by <2 fold.

[3] = target: T1, Aspergillus flavus uricase, clinical preparation (unmodified fungal enzyme) (Aspergillus flavus, UniProt Q00511); assay: Kinetic comparison of A. flavus uricase clinical preparation with PEG-PBC uricase; format: biochemical; settings: pH 8.6 in borate buffer; versus PEG-PBC uricase
T1 sequence (Q00511 2-302 limits assumed): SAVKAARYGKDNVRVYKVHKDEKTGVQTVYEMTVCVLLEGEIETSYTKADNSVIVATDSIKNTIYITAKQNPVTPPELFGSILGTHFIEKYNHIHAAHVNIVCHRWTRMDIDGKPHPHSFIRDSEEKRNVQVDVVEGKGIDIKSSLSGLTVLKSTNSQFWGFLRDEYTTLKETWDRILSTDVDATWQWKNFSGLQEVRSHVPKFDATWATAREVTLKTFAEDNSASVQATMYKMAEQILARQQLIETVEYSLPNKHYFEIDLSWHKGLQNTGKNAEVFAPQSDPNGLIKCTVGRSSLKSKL
Experimental: as §1

[4] = human, in vivo; cited from earlier work
[5] = compared with uric acid; background statement; cited from earlier work

In the case of `O=c1[nH]c(=O)c2[nH]c(=O)[nH]c2[nH]1` [uric acid], the Km [1] is reported as 10 to 20 µM, the Km [2] is reported as 10 to 20 µM and the “KM, fold higher than PEG-PBC uricase” value [3] is reported as 2 fold. For the same compound, the “Vmax, fold higher than PEG-PBC uricase” value [3] was 10–14 fold.
For `Oc1ncnc2[nH]ncc12` [allopurinol], the “patients who develop allergic reactions” value [4] is listed as roughly 2% and the severe hypersensitivity syndrome [4] is listed as roughly 0.4%.
In the case of `NC(=O)NC1NC(=O)NC1=O` (stereo not shown) [allantoin], the “solubility relative to uric acid (times more soluble)” value [5] is given as 80–100 times.
